Data published in patent publication US10722520B2, “Heterocyclic compounds and their use in preventing or treating bacterial infections” (MUTABILIS, priority 2016, dated 2020).
Like-named read-outs stand apart in the source and are kept apart here.

Legend:
OXA-11 = OXA-11 (Pseudomonas aeruginosa, UniProt Q06778)
K. oxytoca UFR21 = assay: MIC of compound alone, broth microdilution; format: cell-based; conditions: strain UFR21: K. oxytoca, TEM-1, CTX-M-15, OXA-48; for MIC: Klebsiella oxytoca, read-out: MIC compounds of the invention alone
How it was run: (§1)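 Growth inhibition was scored by eye after 16-20 h at 35° C (room air), with bacteria from log phase seeded at 5×10^5 cfu/mL final in cation-adjusted Mueller-Hinton medium.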

K. pneumoniae 6299 = assay: MIC of compound alone, broth microdilution; format: cell-based; conditions: strain 6299: K. pneumoniae, TEM-1, SHV-11, OXA-163; for MIC: Klebsiella pneumoniae, read-out: MIC compounds of the invention alone
How it was run: as §1

K. pneumoniae UFR77 [1] = assay: MIC of compound alone, broth microdilution; format: cell-based; conditions: strain UFR77: K. pneumoniae, CMY-2; for MIC: Klebsiella pneumoniae, read-out: MIC compounds of the invention alone
How it was run: as §1

E. cloacae 260508 = assay: MIC of compound alone, broth microdilution; format: cell-based; conditions: strain 260508: E. cloacae, TEM-1, CTX-M-15; for MIC: Enterobacter cloacae, read-out: MIC compounds of the invention alone
How it was run: as §1

K. pneumoniae UFR24 = assay: MIC of compound alone, broth microdilution; format: cell-based; conditions: strain UFR24: K. pneumoniae, TEM-1, SHV-2, SHV-11, OXA-1, OXA-48, OXA-47; for MIC: Klebsiella pneumoniae, read-out: MIC compounds of the invention alone
How it was run: as §1

K. pneumoniae 160143 = assay: MIC of compound alone, broth microdilution; format: cell-based; conditions: strain 160143: K. pneumoniae, TEM-1, SHV-1, CTX-M-15, KPC-2, OXA-1; for MIC: Klebsiella pneumoniae, read-out: MIC compounds of the invention alone
How it was run: as §1

K. pneumoniae 200047 = assay: MIC of compound alone, broth microdilution; format: cell-based; conditions: strain 200047: K. pneumoniae, TEM-1, SHV-32, CTX-M-15, OXA-1; for MIC: Klebsiella pneumoniae, read-out: MIC compounds of the invention alone
How it was run: as §1

K. pneumoniae BAA-1898 = assay: MIC of compound alone, broth microdilution; format: cell-based; conditions: strain BAA-1898: K. pneumoniae, TEM-1, SHV-11, SHV-12, KPC-2; for MIC: Klebsiella pneumoniae, BAA1898, read-out: MIC compounds of the invention alone
How it was run: as §1

E. coli UFR41 = assay: MIC of compound alone, broth microdilution; format: cell-based; conditions: strain UFR41: E. coli, TEM-1, CTX-M-15, CMY-2, OXA-1, NDM-4; for MIC: Escherichia coli, read-out: MIC compounds of the invention alone
How it was run: as §1

K. pneumoniae UFR68 = assay: MIC of compound alone, broth microdilution; format: cell-based; conditions: strain UFR68: K. pneumoniae, TEM-1, SHV-11, CTX-M-15, KPC-3; for MIC: Klebsiella pneumoniae, read-out: MIC compounds of the invention alone
How it was run: as §1

E. cloacae UFR51 = assay: MIC of compound alone, broth microdilution; format: cell-based; conditions: strain UFR51: E. cloacae, SHV-12, IMP-8; for MIC: Enterobacter cloacae, read-out: MIC compounds of the invention alone
How it was run: as §1

E. cloacae P99 = assay: MIC of compound alone, broth microdilution; format: cell-based; conditions: strain P99: E. cloacae, AmpC; for MIC: Enterobacter cloacae, read-out: MIC compounds of the invention alone
How it was run: as §1

E. coli UFR74 = assay: MIC of compound alone, broth microdilution; format: cell-based; conditions: strain UFR74: E. coli, SHV-1, DHA-1; for MIC: Escherichia coli, read-out: MIC compounds of the invention alone
How it was run: as §1

E. cloacae UFR70 = assay: MIC of compound alone, broth microdilution; format: cell-based; conditions: strain UFR70: E. cloacae, TEM-1, CTX-M-15, CMY-2, OXA-1, Porin loss; for MIC: Enterobacter cloacae, read-out: MIC compounds of the invention alone
How it was run: as §1

P. aeruginosa CIP107051 = assay: MIC of compound alone, broth microdilution; format: cell-based; conditions: strain CIP107051: P. aeruginosa, TEM-24; for MIC: Pseudomonas aeruginosa, read-out: MIC compounds of the invention alone
How it was run: as §1

E. coli UFR32 [2] = assay: MIC of compound alone, broth microdilution; format: cell-based; conditions: strain UFR32: E. coli, TEM-1, VEB-1, OXA-10; for MIC: Escherichia coli, read-out: MIC compounds of the invention alone
How it was run: as §1

E. coli 190317 = assay: MIC of compound alone, broth microdilution; format: cell-based; conditions: strain 190317: E. coli, TEM-1, SHV-12, CTX-M-15, OXA-1; for MIC: Escherichia coli, read-out: MIC compounds of the invention alone
How it was run: as §1

E. coli UFR61O = assay: MIC of compound alone, broth microdilution; format: cell-based; conditions: strain UFR61O: E. coli, TEM-1, KPC-2; for MIC: Escherichia coli, read-out: MIC compounds of the invention alone
How it was run: as §1

E. coli UFR18 = assay: MIC of compound alone, broth microdilution; format: cell-based; conditions: strain UFR18: E. coli, CTX-M-15, OXA-204; for MIC: Escherichia coli, read-out: MIC compounds of the invention alone
How it was run: as §1

E. cloacae UFR85 = assay: MIC of compound alone, broth microdilution; format: cell-based; conditions: strain UFR85: E. cloacae, TEM-1, CTX-M-15, AmpC; for MIC: Enterobacter cloacae, read-out: MIC compounds of the invention alone
How it was run: as §1

E. coli 131119 = assay: MIC of compound alone, broth microdilution; format: cell-based; conditions: strain 131119: E. coli, TEM-1, OXA-48; for MIC: Escherichia coli, read-out: MIC compounds of the invention alone
How it was run: as §1

E. coli UFR39 = assay: MIC of compound alone, broth microdilution; format: cell-based; conditions: for MIC: Escherichia coli, UFR39, read-out: MIC compounds of the invention alone
How it was run: as §1

K. pneumoniae UFR77 [3] = assay: MIC of ceftazidime (CAZ) at fixed concentration of compound (synergy), broth microdilution; format: cell-based; conditions: MIC of ceftazidime with compound fixed at 4 μg/mL; strain UFR77 (K. pneumoniae)
How it was run: as §1

E. coli UFR32 [4] = assay: as above; format: cell-based; conditions: MIC of ceftazidime with compound fixed at 4 μg/mL; strain UFR32 (E. coli)
How it was run: as §1

Chain of OXA-11 (Q06778 21-266): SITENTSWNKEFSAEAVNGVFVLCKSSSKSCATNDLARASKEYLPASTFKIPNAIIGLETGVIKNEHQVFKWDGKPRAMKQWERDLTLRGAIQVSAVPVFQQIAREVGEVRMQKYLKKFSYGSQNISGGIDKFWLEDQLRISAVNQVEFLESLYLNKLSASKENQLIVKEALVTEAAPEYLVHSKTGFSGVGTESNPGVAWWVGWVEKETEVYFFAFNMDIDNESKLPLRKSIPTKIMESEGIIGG

Compound `O=C1N2CC(n3nccn3)=CC(C2)N1OS(=O)(=O)O` (stereo not drawn) [Example 3, sodium [7-oxo-3-(triazol-2-yl)-1,6-diazabicyclo[3.2.1]oct-3-en-6-yl]sulfate] has an IC50 (OXA-11) of 0.085 µM, an MIC (K. oxytoca UFR21) of 8 mg/L and an MIC (K. pneumoniae 6299) of 16 mg/L. The MIC (K. pneumoniae UFR77 [1]) was 4 mg/L, the MIC (E. cloacae 260508) was 4 mg/L and the MIC (K. pneumoniae UFR24) was 8 mg/L. It also gave an MIC (K. pneumoniae 160143) of 4 mg/L, an MIC (K. pneumoniae 200047) of 4 mg/L and an MIC (K. pneumoniae BAA-1898) of 8 mg/L. For the same compound, the MIC (E. coli UFR41) was 16 mg/L, the MIC (K. pneumoniae UFR68) was 8 mg/L and the MIC (E. cloacae UFR51) was 2 mg/L. It also gave an MIC (E. cloacae P99) of 8 mg/L, an MIC (E. coli UFR74) of 8 mg/L and an MIC (E. cloacae UFR70) of 4 mg/L. For the same compound, the MIC (P. aeruginosa CIP107051) was > 32 mg/L, the MIC (E. coli UFR32 [2]) was 2 mg/L and the MIC (E. coli 190317) was 2 mg/L. It also gave an MIC (E. coli UFR61O) of 8 mg/L, an MIC (E. coli UFR18) of 2 mg/L and an MIC (E. cloacae UFR85) of 4 mg/L. For the same compound, the MIC (E. coli 131119) was 1 mg/L, the MIC (E. coli UFR39) was 8 mg/L and the “MIC combination of CAZ and compounds of the invention at 4 μg/mL” value (“MIC combination” for short) (K. pneumoniae UFR77 [3]) was <0.25. The “MIC combination” value (E. coli UFR32 [4]) was <0.25.
For `O=C1N2CC(n3ccnn3)=CC(C2)N1OS(=O)(=O)[O-].[Na+]` (stereo not drawn) [Example 2, sodium [7-oxo-3-(triazol-1-yl)-1,6-diazabicyclo[3.2.1]oct-3-en-6-yl]sulfate], the IC50 (OXA-11; read-out: IC50 β-lactamase OXA-11, class (D), nitrocefin 200 μM, 30-min pre-incubation, enzyme 1.2 nM) was 0.04 µM, the “MIC compounds of the invention alone” value (K. oxytoca UFR21) was 2 mg/L and the “MIC compounds of the invention alone” value (K. pneumoniae 6299) was 4 mg/L. The “MIC compounds of the invention alone” value (K. pneumoniae UFR77 [1]) was 2 mg/L, the “MIC compounds of the invention alone” value (E. cloacae 260508) was 2 mg/L and the “MIC compounds of the invention alone” value (K. pneumoniae UFR24) was 4 mg/L. For the same compound, the “MIC compounds of the invention alone” value (K. pneumoniae 160143) was 2 mg/L, the “MIC compounds of the invention alone” value (K. pneumoniae 200047) was 2 mg/L and the “MIC compounds of the invention alone” value (K. pneumoniae BAA-1898) was 2 mg/L. The “MIC compounds of the invention alone” value (E. coli UFR41) was 2 mg/L, the “MIC compounds of the invention alone” value (K. pneumoniae UFR68) was 4 mg/L and the “MIC compounds of the invention alone” value (E. cloacae UFR51) was 2 mg/L. The “MIC compounds of the invention alone” value (E. cloacae P99) was 1 mg/L, the “MIC compounds of the invention alone” value (E. coli UFR74) was 2 mg/L and the “MIC compounds of the invention alone” value (E. cloacae UFR70) was 1 mg/L. The “MIC compounds of the invention alone” value (P. aeruginosa CIP107051) was >32 mg/L, the “MIC compounds of the invention alone” value (E. coli UFR32 [2]) was 1 mg/L and the “MIC compounds of the invention alone” value (E. coli 190317) was 1 mg/L. The “MIC compounds of the invention alone” value (E. coli UFR61O) was 4 mg/L, the “MIC compounds of the invention alone” value (E. coli UFR18) was 1 mg/L and the “MIC compounds of the invention alone” value (E. cloacae UFR85) was 1 mg/L. For the same compound, the “MIC compounds of the invention alone” value (E. coli 131119) was 1 mg/L, the “MIC compounds of the invention alone” value (E. coli UFR39; strain UFR39: E. coli, CTX-M-15, NDM-1) was 1 mg/L and the “MIC combination” value (K. pneumoniae UFR77 [3]) was <0.25. The “MIC combination” value (E. coli UFR32 [4]) was <0.25.
For `O=C1N2CC(n3ccnn3)=C[C@H](C2)N1OS(=O)(=O)O` [Example 6, sodium [(5R)-7-oxo-3-(triazol-1-yl)-1,6-diazabicyclo[3.2.1]oct-3-en-6-yl]sulfate], the IC50 (OXA-11) was 0.021 µM, the MIC (K. oxytoca UFR21) was 1 mg/L and the MIC (K. pneumoniae 6299) was 2 mg/L. It also gave an MIC (K. pneumoniae UFR77 [1]) of 1 mg/L, an MIC (E. cloacae 260508) of 1 mg/L and an MIC (K. pneumoniae UFR24) of 1 mg/L. The MIC (K. pneumoniae 160143) was 1 mg/L, the MIC (K. pneumoniae 200047) was 1 mg/L and the MIC (K. pneumoniae BAA-1898) was 2 mg/L. The MIC (E. coli UFR41) was 2 mg/L, the MIC (K. pneumoniae UFR68) was 1 mg/L and the MIC (E. cloacae UFR51) was 1 mg/L. For the same compound, the MIC (E. cloacae P99) was 1 mg/L, the MIC (E. coli UFR74) was 1 mg/L and the MIC (E. cloacae UFR70) was 0.5 mg/L. It also gave an MIC (P. aeruginosa CIP107051) of 32 mg/L, an MIC (E. coli UFR32 [2]) of 0.5 mg/L and an MIC (E. coli 190317) of 0.5 mg/L. The MIC (E. coli UFR61O) was 2 mg/L, the MIC (E. coli UFR18) was 0.5 mg/L and the MIC (E. cloacae UFR85) was 1 mg/L. For the same compound, the MIC (E. coli 131119) was 0.5 mg/L, the MIC (E. coli UFR39) was 1 mg/L and the “MIC combination” value (K. pneumoniae UFR77 [3]) was <0.25. For the same compound, the “MIC combination” value (E. coli UFR32 [4]) was <0.25.
